Laboratory results from patent publication US9416136B2, “Pyrrolopyrimidine compounds and their uses” (Novartis AG, priority 2008, dated 2016).

Columns and labels:
[1] = system: pRb negative cells; assay: cell proliferation of pRb negative cells; assay type: cell-based; settings: high concentrations
Text: (§1) Moreover, the inhibitory effects of the CDK4 inhibitor are absolutely dependent upon the presence of the Retinoblastoma protein (pRb). Activities in pRb negative cells for candidate CDK4 inhibitors indicate that the compounds have off-target activities and not as selective.

[2] = system: cell cycle; assay: cell cycle analysis; assay type: cell-based; settings: concentrations of 1 and 10 uM
Text: as §1

CN(C)C(=O)c1cc2cnc(Nc3ccc(N4CCNCC4)cc3)nc2n1C1CCCC1 [Example 200]
inhibition of cell proliferation of pRb negative cells [1]: does inhibit the cell proliferation of pRb negative cells at high concentrations | cell cycle arrest phase [2]: starts to induce G2/M phase blocks
